Results taken from paper PMC8910920 (International Journal of Molecular Sciences, 2022).

Key:
rTRPM8 = molecular target: T1, rTRPM8 (Rattus norvegicus, UniProt Q8R455); experiment: Ca2+ microfluorography assay, HEK293 cells expressing rTRPM8, menthol activation; type: cell-based
T1 construct: expressed in transfected cells
Protocol: This represents a similar activity as β–lactam 2 and a somewhat higher potency than the model TRPM8 antagonists AMTB.
To measure the effect of the compounds against TRPM8 activity we used microfluorometry-based calcium flux assays with Fluo-4 NW Ca^2+ dye and fluorescence as described in [30]. Briefly, human embryonic kidney cell line (HEK293) cells stably transfected with rTRPM8 or hTRPM8 were seeded in 96-well plates at a cell density of 30,000 cells. After 2 days the medium was replaced with 100 μL of the dye, Fluo-4 NW, loading solution supplemented with probenecid 2.5 mM and incubated 1 h at 37 °C. The TRPM8 activity was measured using POLASTAR plate reader (BMG Labtech) setting the excitation wavelength at 485 nm and the emission wavelength at 520 nm. The baseline fluorescence was recorded for 3 cycles before the addition of vehicle compound at different concentrations and the antagonist, 10 μM AMTB. Fluorescence intensity was recorded during 7 more cycles and 100 μM menthol was added. Fluorescence intensity was recorded during 10 more cycles.
Data analysis: The Z-factor was calculated in each assay using the following equation: […]. In all the experiments, the Z-factor was ≥0.5. The effect of the compounds against TRPM8 activity was determined by normalizing their effect on the maximum fluorescence observed after application of 100 μM menthol. Decrease in menthol signal was expressed as percentage of inhibition (%). All data are expressed as the mean ± standard deviation (SD). Data are expressed as the concentration exerting a half-maximal inhibition of agonist-induced [Ca^2+]i elevation (IC50), which was calculated again using GraphPad Prism® software. All determinations were performed in triplicate (n = 3) in 3 independent experiments (N = 3).

[1] = Partition coefficient (Log D); type: physicochemical
Protocol: These studies were subcontracted to Eurofins-CEREP or Eurofins-PANLABS. Briefly, agonists and antagonist assays were performed in cell cultures overexpressing the corresponding channel (CHO: TRPV1 and TRPA1; HEK293: TRPV3 and ASIC3). In vitro pharmacology, cellular channel functional assays: the compound was prepared in assay buffer to the final concentration, 10 μM. The compound wells, reference agonist and background vehicle controls were prepared in DMSO at 0.3%. […] The reference agonist for each Ion Channel was included at Emax (the concentration where the reference agonist elicited a maximal response). The agonist assay was conducted on fluorimeter instruments where the test compound, vehicle controls, and reference agonist were added to the assay plate after a fluorescence baseline was established. […] For the antagonist assay, the compound was pre-incubated for five minutes at room temperature, and then challenged with the EC80 concentration of the reference agonist after establishment of a fluorescence baseline. […] Binding assay results are expressed as a percent of control specific binding. […] Aqueous solubility (μM) was determined by comparing the peak area of the principal peak in a calibration standard (200 μM) containing organic solvent (methanol/water, 60/40, v/v) with the peak area of the corresponding peak in a buffer sample. […] Permeability was measured in CACO-2 monolayers.

T1 sequence (Q8R455 whole entry): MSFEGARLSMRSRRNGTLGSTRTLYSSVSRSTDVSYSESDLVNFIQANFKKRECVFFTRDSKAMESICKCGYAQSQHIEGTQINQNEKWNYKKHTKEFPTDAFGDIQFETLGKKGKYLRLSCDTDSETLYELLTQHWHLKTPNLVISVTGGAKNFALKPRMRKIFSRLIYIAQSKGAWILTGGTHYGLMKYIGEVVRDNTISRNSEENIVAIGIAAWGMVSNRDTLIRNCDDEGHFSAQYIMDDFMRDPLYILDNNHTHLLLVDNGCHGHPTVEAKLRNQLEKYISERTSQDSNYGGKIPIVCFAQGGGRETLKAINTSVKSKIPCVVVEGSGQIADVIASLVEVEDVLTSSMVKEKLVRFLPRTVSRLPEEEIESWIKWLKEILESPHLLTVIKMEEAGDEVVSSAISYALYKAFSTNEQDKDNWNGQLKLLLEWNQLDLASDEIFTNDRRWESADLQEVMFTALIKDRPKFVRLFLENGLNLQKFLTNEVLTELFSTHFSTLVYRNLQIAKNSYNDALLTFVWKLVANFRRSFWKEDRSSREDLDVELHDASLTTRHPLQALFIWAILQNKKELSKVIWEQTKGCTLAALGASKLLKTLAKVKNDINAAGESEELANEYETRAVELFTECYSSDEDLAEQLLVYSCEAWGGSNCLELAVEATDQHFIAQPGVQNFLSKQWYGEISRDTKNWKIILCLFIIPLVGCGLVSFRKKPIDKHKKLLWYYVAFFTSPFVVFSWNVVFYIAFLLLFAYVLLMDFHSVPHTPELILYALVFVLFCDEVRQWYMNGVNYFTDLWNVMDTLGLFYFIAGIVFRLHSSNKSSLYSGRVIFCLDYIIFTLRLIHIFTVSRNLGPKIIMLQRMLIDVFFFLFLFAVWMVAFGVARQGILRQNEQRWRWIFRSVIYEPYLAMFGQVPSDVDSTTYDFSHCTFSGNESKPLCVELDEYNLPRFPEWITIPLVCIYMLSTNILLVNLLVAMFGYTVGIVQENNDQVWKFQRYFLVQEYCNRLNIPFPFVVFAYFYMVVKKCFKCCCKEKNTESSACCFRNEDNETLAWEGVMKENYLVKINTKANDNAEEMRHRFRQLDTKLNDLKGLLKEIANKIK

For `C[C@@H]1C(=O)N(C[C@H](Cc2ccccc2)N(Cc2ccccc2)Cc2ccccc2)[C@]1(Cc1ccccc1)C(=O)OC(C)(C)C` [RGM8-51, 4(S)-Benzyl-3S-methyl-4-(tert-butoxy)carbonyl-1-[(2′S-dibenzylamino-3′-phenyl)prop-1′-yl]-2-oxoazetidine], the IC50 (rTRPM8; HEK293-rTRPM8, 100 μM menthol) was 1.06 ± 1.21 µM, the “ability to activate TRPM8 channels (agonist activity)” value (rTRPM8; HEK293 cells expressing rat or human TRPM8) was “did not have any ability to activate TRPM8 channels” and the “Log D” value [1] was 5.7. The logD ([1]; organic phase/aqueous buffer partition) was 5.77.
